The source of these data is US7504243B2, “Methods for the production of biliverdin” (The United States of America as represented by the …, priority 2004, dated 2009).

For this test, the system named is CaHMX1 promoter. Briefly: Renilla luciferase reporter driven by the CaHMX1 promoter in knock-in strain CAMP Ki-29. The settings on record: for Luciferase Activity: strain Ki-29, iron-replete medium, 30° C., 15 min, 1 mg/ml protein, mean±S.D. of two experiments, light units per 5×10^7 cells/assay point. Type of test: cell-based, Candida albicans. The source says: and cloning into pCR-BluntII TOPO (Invitrogen). The inserted fragment is then excised with SstI and PstI and cloned into plasmid pCRW3 (Srikantha, T. et al. (1996) “THE SEA PANSY RENILLA RENIFORMIS LUCIFERASE SERVES AS A SENSITIVE BIOLUMINESCENT REPORTER FOR DIFFERENTIAL GENE EXPRESSION IN CANDIDA ALBICANS,” J. Bacteriol. 178:121-129) using similar sites resulting in plasmid pPt14. This plasmid was linearized at the unique KpnI site in the CaHMX1 promoter (see, FIG. 2, Panel D) to enable recombination into the CaHMX1 genomic site in the C. albicans strain Red 3/6 (Srikantha, T. et al. (1996) “THE SEA PANSY RENILLA RENIFORMIS LUCIFERASE SERVES AS A SENSITIVE BIOLUMINESCENT REPORTER FOR DIFFERENTIAL GENE EXPRESSION IN CANDIDA ALBICANS,” J. Bacteriol. 178:121-129). […] This knock-in procedure is desirable because the reporter plasmid pPt14 is not functional when integrated into the Ade2 locus when introduced as an episome. The resulting strain, CAMP Ki-29, is used for all reporter assays discussed herein. The correct insertion sites of the preceding constructs in the genomes of strains CAMP 50 and CAMP Ki-29 are verified by Southern blotting.
Luciferase Assays—Reporter assays use C. albicans cells that are grown at 30° C. in minimal YNB medium with ammonium sulfate and 2% glucose. 5×10^7 cells were harvested, cell extracts were obtained by glass bead lysis (Srikantha, T. et al. (1996) “THE SEA PANSY RENILLA RENIFORMIS LUCIFERASE SERVES AS A SENSITIVE BIOLUMINESCENT REPORTER FOR DIFFERENTIAL GENE EXPRESSION IN CANDIDA ALBICANS,” J. Bacteriol. 178:121-129), and luminescence is determined using coelenterazine as a substrate (Promega). Luciferase activity is defined as the number of light units using 5×10^7 cells/assay point in 200 μl of lysis buffer using a 5-μl volume for light measurement. To assess regulation of the promoter by iron, the ferrous iron chelator ferrozine is added to cell cultures in the presence of FAS to buffer iron concentrations as described (Philpott, C. C. et al. (1998) “CELL-CYCLE ARREST AND INHIBITION OF G1 CYCLIN TRANSLATION BY IRON IN AFT1-1^UP YEAST,” EMBO J. 17, 5026-5036) (see also, Chaney, R. L. (1988) “PLANTS CAN UTILIZE IRON FROM IRON-N,N′-DI-2 HYDROXYBENZOYLETHYLENEDIAMINE-N,N′-DIACETIC ACID, A FERRIC CHELATE WITH 1,000,000 GREATER FORMATION CONSTANT THAN IRON-EDDHA,” J. Plant Nutr. 11, 1033-1050). FAS added to 1 mM ferrozine at 10, 100, and 400 μM represents low, optimal, and high levels of iron, respectively.
To ensure that this induction is specific for Hb, several control proteins are tested for their ability to stimulate luciferase activity in strain Ki-29 (Table 1). […] Therefore, the iron in Hb is not essential for activity, but the native conformation of globin induced by porphyrin binding is required.
(In general: In a reporter assay the amount or activity of a reporter protein is the signal.)

As for “Apo-transferrin: control protein from Sigma”, the “Luciferase Activity” value turned out to be 64.4 ± 11.8. Regarding Casein, the “Luciferase Activity” value is 38.6 ± 8.1. Turning to “CoPPIX-globin: The cobalt analog of Hb; cobalt protoporphyrin IX substituted for the heme in globin”, the “Luciferase Activity” value was found to be 161.7 ± 24. On to Fetuin: control protein from Sigma, for which the “Luciferase Activity” value is given as 59.3 ± 5.9. As to “Holo-transferrin: ferroprotein transferrin, control protein from Sigma”, the “Luciferase Activity” value amounted to 20.7 ± 0.55. Consider hemin [reference compound], for which the “increase in activity over the iron-replete control when hemin is added to Hb combined with ferrozine” value (24 h, Hb 25 μM + ferrozine 100 μM + hemin 25 μM) worked out at 2.5 fold. Where the note is “CAMP Ki-29 cells, hemin 25 μM, 24 h”, the “increase of CaHMX1 promoter activity by hemin after 24 h” value was “about 2 fold”. Besides, the “lag time before induction of promoter activity” value (iron-deficient medium, 25 μM hemin, extended time course) is 3 h.
